Assay results: the NIST ThermoML archive (doi:10.1016/j.jct.2018.05.012)
Numbers after ± are expanded uncertainties.

Assay: xn = mol fraction of the nth substance listed
Conditions: 100 kPa, Liquid; for speed of sound: Frequency=3 MHz, Single path-length method; for mass density: Vibrating tube method

C1COCO1 [1,3-dioxolane] + C1COCCO1
Conditions	mass density, 293.15 K [kg/m3]	mass density, 298.15 K [kg/m3]	mass density, 303.15 K [kg/m3]	mass density, 308.15 K [kg/m3]	speed of sound, 293.15 K [m/s]	speed of sound, 298.15 K [m/s]	speed of sound, 303.15 K [m/s]	speed of sound, 308.15 K [m/s]
x1 = 0.1184	1036.5 ± 1	1030.8 ± 1	1025.1 ± 1	1019.3 ± 1	1367 ± 1.4	1345.1 ± 1.4	1323.5 ± 1.4	1301.6 ± 1.4
x1 = 0.1694	1037.8 ± 1	1032.1 ± 1	1026.4 ± 1	1020.6 ± 1	1366.7 ± 1.4	1344.8 ± 1.4	1323.1 ± 1.4	1301.2 ± 1.4
x1 = 0.2145	1039 ± 1	1033.3 ± 1	1027.5 ± 1	1021.7 ± 1	1366.4 ± 1.4	1344.5 ± 1.4	1322.8 ± 1.4	1300.8 ± 1.4
x1 = 0.2632	1040.4 ± 1	1034.6 ± 1	1028.8 ± 1	1022.9 ± 1	1366.1 ± 1.4	1344.1 ± 1.4	1322.4 ± 1.4	1300.5 ± 1.4
x1 = 0.3154	1041.8 ± 1	1036.1 ± 1	1030.2 ± 1	1024.3 ± 1	1365.8 ± 1.4	1343.8 ± 1.4	1322.1 ± 1.4	1300.1 ± 1.4
x1 = 0.3689	1043.3 ± 1	1037.6 ± 1	1031.7 ± 1	1025.8 ± 1	1365.5 ± 1.4	1343.5 ± 1.4	1321.7 ± 1.4	1299.7 ± 1.4
x1 = 0.4184	1044.8 ± 1	1039 ± 1	1033.1 ± 1	1027.2 ± 1	1365.2 ± 1.4	1343.1 ± 1.4	1321.3 ± 1.4	1299.4 ± 1.4
x1 = 0.4697	1046.3 ± 1	1040.5 ± 1	1034.6 ± 1	1028.6 ± 1	1364.9 ± 1.4	1342.8 ± 1.4	1321 ± 1.4	1299 ± 1.4
x1 = 0.5124	1047.6 ± 1	1041.8 ± 1	1035.8 ± 1	1029.9 ± 1	1364.6 ± 1.4	1342.5 ± 1.4	1320.7 ± 1.4	1298.7 ± 1.4
x1 = 0.5674	1049.4 ± 1	1043.6 ± 1	1037.5 ± 1	1031.5 ± 1	1364.3 ± 1.4	1342.1 ± 1.4	1320.3 ± 1.4	1298.3 ± 1.4
x1 = 0.6282	1051.4 ± 1	1045.5 ± 1	1039.5 ± 1	1033.4 ± 1	1363.9 ± 1.4	1341.7 ± 1.4	1319.8 ± 1.4	1297.9 ± 1.4
x1 = 0.6734	1052.9 ± 1	1047 ± 1	1040.9 ± 1	1034.8 ± 1	1363.6 ± 1.4	1341.4 ± 1.4	1319.5 ± 1.4	1297.5 ± 1.4
x1 = 0.7231	1054.6 ± 1	1048.7 ± 1	1042.6 ± 1	1036.5 ± 1	1363.3 ± 1.4	1341 ± 1.4	1319.1 ± 1.4	1297.1 ± 1.4
x1 = 0.7626	1055.9 ± 1	1050.1 ± 1	1043.9 ± 1	1037.8 ± 1	1363 ± 1.4	1340.7 ± 1.4	1318.8 ± 1.4	1296.8 ± 1.4
x1 = 0.7992	1057.2 ± 1	1051.4 ± 1	1045.2 ± 1	1039 ± 1	1362.7 ± 1.4	1340.4 ± 1.4	1318.5 ± 1.4	1296.5 ± 1.4
x1 = 0.8486	1059 ± 1	1053.1 ± 1	1046.9 ± 1	1040.7 ± 1	1362.4 ± 1.4	1340 ± 1.4	1318.1 ± 1.4	1296.1 ± 1.4
x1 = 0.8815	1060.2 ± 1	1054.3 ± 1	1048.1 ± 1	1041.9 ± 1	1362.1 ± 1.4	1339.8 ± 1.4	1317.8 ± 1.4	1295.8 ± 1.4
x1 = 0.9102	1061.3 ± 1	1055.4 ± 1	1049.1 ± 1	1042.9 ± 1	1361.9 ± 1.4	1339.5 ± 1.4	1317.5 ± 1.4	1295.5 ± 1.4
